In ChEMBL document CHEMBL1770059, “Identification of chemicals to inhibit the kinase activity of leucine-rich repeat kinase 2 (LRRK2), a Parkinson's disease-associated protein” (Bioorg Med Chem Lett, 2011):

What was measured:
[1] = target: Serine/threonine-protein kinase mTOR (Homo sapiens) (UniProt P42345); test: Inhibition of mTOR assessed as residual activity of enzyme at 25 uM
[2] = target: Leucine-rich repeat serine/threonine-protein kinase 2 (Homo sapiens) (UniProt Q5S007); test: Inhibition of wild type LRRK2 expressed in mouse SN4741 cells assessed as reduction in hydrogen peroxide-induced neurotoxicity at 10 uM by measuring cell survival after 48 hrs by crystal violet assay relative to control; assay type: cell-based
[3] = target: T1, Mitogen-activated protein kinase kinase kinase 5 (Homo sapiens) (UniProt Q99683); test: Inhibition of ASK1 assessed as residual activity of enzyme at 25 uM
T1 sequence (whole entry): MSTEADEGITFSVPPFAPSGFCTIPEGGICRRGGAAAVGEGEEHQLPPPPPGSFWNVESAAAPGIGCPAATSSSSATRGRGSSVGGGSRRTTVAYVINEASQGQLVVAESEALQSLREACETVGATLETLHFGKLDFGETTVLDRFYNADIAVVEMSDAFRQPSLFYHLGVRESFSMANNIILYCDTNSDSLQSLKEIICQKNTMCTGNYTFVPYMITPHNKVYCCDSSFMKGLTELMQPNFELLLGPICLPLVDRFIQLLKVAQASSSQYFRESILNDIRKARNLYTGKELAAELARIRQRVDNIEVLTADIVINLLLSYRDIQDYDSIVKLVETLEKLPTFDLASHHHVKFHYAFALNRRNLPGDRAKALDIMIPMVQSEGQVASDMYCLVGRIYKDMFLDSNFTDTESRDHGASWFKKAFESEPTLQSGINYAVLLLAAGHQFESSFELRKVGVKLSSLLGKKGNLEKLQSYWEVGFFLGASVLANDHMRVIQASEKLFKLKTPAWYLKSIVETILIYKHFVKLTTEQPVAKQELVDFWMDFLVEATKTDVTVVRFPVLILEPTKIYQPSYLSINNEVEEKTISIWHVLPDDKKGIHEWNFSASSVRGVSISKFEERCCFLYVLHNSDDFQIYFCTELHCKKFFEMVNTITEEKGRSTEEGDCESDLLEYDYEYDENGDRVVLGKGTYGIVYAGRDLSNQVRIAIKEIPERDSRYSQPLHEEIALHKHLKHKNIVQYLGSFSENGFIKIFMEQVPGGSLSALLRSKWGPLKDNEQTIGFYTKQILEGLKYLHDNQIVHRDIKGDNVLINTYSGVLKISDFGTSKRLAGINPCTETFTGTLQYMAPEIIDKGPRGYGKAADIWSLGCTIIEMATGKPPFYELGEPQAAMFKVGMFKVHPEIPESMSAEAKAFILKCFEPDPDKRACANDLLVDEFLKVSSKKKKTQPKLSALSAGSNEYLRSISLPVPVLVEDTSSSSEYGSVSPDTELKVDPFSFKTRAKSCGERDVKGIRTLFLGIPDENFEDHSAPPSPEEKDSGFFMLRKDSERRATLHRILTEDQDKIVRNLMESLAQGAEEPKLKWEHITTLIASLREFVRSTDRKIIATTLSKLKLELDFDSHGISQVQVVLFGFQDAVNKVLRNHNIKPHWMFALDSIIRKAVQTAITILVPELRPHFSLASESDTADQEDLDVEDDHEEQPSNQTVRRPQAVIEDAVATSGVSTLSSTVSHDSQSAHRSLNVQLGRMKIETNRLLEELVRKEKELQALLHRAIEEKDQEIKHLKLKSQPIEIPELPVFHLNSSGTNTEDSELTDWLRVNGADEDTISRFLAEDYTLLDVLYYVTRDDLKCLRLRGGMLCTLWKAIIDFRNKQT

[4] = tested on: Leucine-rich repeat serine/threonine-protein kinase 2 (Homo sapiens), Q5S007 [G2019S]; test: Inhibition of purified N-terminal GST-tagged LRRK2 G2019S mutant assessed as residual activity of enzyme at 10 uM
[5] = target: T1, Mitogen-activated protein kinase kinase kinase 5 (Homo sapiens); test: Inhibition of ASK1 assessed as residual activity of enzyme at 10 uM
[6] = target: Mitogen-activated protein kinase kinase kinase 9 (Homo sapiens) (UniProt P80192); test: Inhibition of MLK1 assessed as residual activity of enzyme at 10 uM
Mitogen-activated protein kinase kinase kinase 9 (Homo sapiens), sequence (P80192 whole entry, looked up): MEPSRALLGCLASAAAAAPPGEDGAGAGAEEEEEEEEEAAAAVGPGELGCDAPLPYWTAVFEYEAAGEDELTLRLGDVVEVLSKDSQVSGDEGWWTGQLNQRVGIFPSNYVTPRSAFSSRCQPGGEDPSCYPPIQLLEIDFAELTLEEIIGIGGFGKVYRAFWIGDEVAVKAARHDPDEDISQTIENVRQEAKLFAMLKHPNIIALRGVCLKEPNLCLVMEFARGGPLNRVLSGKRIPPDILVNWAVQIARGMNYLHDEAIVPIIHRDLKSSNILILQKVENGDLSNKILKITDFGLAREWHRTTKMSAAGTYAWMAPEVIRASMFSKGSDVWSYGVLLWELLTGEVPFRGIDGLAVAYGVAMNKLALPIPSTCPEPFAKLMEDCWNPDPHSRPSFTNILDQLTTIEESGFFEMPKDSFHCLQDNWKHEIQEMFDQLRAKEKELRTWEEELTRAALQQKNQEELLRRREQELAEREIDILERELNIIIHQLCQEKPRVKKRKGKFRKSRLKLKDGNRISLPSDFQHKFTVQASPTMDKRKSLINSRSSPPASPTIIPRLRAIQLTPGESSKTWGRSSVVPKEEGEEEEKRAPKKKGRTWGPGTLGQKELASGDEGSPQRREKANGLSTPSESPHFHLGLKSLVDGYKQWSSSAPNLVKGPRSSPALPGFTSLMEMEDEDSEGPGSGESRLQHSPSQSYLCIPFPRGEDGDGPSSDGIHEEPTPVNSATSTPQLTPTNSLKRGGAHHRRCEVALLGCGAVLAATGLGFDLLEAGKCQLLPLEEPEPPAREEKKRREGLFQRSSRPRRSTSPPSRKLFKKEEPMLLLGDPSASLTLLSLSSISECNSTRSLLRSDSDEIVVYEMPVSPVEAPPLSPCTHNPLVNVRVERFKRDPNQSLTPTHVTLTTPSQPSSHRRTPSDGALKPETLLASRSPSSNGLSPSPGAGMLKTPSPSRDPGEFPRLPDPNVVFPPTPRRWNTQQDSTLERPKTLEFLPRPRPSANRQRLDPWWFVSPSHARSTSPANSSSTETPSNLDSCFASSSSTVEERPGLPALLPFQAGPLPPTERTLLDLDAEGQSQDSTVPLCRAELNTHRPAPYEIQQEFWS

Leucine-rich repeat serine/threonine-protein kinase 2 (Homo sapiens), Q5S007 [G2019S], sequence (Q5S007 whole entry G2019S): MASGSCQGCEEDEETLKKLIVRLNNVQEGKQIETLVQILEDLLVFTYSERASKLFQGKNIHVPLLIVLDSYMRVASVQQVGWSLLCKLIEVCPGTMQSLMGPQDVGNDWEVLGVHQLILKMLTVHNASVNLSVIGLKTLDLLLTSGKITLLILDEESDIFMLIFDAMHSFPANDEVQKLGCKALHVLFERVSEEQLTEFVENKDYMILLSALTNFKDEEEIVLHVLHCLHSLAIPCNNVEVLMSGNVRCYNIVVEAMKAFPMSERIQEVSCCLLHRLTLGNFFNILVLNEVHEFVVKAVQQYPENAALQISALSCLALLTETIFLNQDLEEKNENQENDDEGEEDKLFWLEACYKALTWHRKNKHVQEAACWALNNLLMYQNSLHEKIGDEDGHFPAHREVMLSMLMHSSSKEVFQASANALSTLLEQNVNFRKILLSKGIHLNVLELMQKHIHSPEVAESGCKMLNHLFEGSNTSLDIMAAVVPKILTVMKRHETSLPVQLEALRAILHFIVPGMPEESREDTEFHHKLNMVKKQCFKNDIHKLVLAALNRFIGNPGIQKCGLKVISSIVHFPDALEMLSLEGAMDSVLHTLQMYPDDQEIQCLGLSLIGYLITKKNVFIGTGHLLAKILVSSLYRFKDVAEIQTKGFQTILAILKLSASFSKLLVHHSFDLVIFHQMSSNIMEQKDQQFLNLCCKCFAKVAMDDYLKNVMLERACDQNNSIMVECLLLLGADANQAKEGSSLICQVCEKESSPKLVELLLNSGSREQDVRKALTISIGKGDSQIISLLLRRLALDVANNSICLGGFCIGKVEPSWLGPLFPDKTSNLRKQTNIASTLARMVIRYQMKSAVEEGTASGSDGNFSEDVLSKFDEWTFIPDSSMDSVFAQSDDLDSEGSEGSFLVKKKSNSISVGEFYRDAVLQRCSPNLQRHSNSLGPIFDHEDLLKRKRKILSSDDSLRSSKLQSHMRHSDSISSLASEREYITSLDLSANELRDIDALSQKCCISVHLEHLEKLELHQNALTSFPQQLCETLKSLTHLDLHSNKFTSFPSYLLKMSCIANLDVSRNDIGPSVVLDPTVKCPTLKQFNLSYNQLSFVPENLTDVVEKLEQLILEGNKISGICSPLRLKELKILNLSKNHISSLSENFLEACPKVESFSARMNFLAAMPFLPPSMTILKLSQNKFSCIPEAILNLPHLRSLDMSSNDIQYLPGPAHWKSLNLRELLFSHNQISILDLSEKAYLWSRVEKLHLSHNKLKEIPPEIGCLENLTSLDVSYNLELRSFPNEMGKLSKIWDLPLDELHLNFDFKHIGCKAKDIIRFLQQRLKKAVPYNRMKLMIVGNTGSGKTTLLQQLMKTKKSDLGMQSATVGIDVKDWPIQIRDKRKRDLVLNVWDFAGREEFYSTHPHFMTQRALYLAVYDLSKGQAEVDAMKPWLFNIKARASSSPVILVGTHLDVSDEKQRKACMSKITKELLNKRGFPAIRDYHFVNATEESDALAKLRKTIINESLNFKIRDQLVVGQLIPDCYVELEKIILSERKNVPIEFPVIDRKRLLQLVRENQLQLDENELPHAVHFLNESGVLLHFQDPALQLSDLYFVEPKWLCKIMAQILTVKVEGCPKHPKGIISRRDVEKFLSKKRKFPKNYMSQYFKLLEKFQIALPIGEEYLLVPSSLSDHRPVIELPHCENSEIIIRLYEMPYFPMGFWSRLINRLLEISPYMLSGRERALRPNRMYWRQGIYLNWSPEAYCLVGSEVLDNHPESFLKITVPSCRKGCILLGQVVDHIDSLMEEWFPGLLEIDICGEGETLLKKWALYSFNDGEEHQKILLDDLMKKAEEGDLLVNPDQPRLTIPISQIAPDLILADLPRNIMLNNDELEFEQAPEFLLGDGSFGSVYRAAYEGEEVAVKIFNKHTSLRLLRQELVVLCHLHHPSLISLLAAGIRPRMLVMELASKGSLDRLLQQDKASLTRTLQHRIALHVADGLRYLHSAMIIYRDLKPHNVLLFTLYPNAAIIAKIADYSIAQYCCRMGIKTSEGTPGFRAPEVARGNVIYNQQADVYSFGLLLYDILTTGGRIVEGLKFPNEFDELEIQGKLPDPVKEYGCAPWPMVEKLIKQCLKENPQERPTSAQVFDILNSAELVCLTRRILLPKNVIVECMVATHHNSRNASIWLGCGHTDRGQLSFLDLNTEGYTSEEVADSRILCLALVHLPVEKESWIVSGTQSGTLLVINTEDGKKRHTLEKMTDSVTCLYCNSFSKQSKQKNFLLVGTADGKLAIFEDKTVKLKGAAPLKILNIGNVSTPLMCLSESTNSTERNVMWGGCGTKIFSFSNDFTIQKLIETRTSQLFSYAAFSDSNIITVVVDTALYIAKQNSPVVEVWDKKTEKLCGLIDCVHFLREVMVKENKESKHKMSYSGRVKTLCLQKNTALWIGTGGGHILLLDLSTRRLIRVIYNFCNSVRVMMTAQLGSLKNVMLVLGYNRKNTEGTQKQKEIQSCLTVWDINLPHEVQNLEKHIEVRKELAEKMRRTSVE
Leucine-rich repeat serine/threonine-protein kinase 2 (Homo sapiens), sequence (Q5S007 whole entry): as the sequence (Q5S007 whole entry G2019S) above, with S2019G counted along it

- Activity [1]: 99%
- Activity [3]: 68%
- Activity [4]: 28%
- Activity [5]: 94%
- Activity [6]: 20%
Structure (SMILES): Cc1cc(N/N=C/c2ccncc2)nc2ccccc12
- Activity [2]: 50%
